# In ChEMBL document CHEMBL6087459 (J Med Chem, 2025):
# Active and inactive are the calls of the source. The rule behind the calls is not given here.
# Assays:
# Cytochrome P450 1A2 = Cytochrome P450 1A2 (Homo sapiens, UniProt P05177); test: Inhibition of recombinant human CYP1A2 by Eurofins assay; assay type: ADME
# Homo sapiens [1] = organism: Homo sapiens; test: Inhibition of human PDE6 at 10 uM by Eurofins kinase assay relative to control
# Cytochrome P450 2C19 = Cytochrome P450 2C19 (Homo sapiens, UniProt P33261); test: Inhibition of recombinant human CYP2C19 by Eurofins assay; assay type: ADME
# [2] = molecular target: T1, 3',5'-cyclic-AMP phosphodiesterase 4D (Homo sapiens, UniProt Q08499); test: Inhibition of human PDE4D2 by Eurofins kinase assay; assay type: toxicity
# [3] = molecular target: Voltage-gated inwardly rectifying potassium channel KCNH2 (Homo sapiens, UniProt Q12809); test: Inhibition of human ERG by Eurofins kinase assay; assay type: toxicity
# [4] = Cytotoxicity against human HCT-8 cells assessed as inhibition of cell proliferation incubated for 48 hrs by Celltiter aqueous assay; assay type: toxicity, cell-based; conditions: read-out: TC50
# Cytochrome P450 2D6 = Cytochrome P450 2D6 (Homo sapiens, UniProt P10635); test: Inhibition of recombinant human CYP2D6 by Eurofins assay; assay type: ADME
# [5] = molecular target: cGMP-dependent 3',5'-cyclic phosphodiesterase (Homo sapiens) (UniProt O00408); test: Inhibition of human PDE2A1 at 10 uM by Eurofins kinase assay relative to control
# PDE11A = PDE11A (Homo sapiens, UniProt Q9HCR9); test: Inhibition of recombinant human PDE11A extracted from Sf9 cells using [3H]cAMP as substrate at 10 uM by Eurofins kinase assay relative to control; assay type: toxicity, cell-free; conditions: probe [3H]cAMP
# Homo sapiens [6] = organism: Homo sapiens; test: Inhibition of human PDE4A1A at 10 uM by Eurofins kinase assay relative to control
# [7] = molecular target: cGMP-inhibited 3',5'-cyclic phosphodiesterase 3A (Homo sapiens) (UniProt Q14432); test: Inhibition of human PDE3A at 10 uM by Eurofins kinase assay relative to control
# [8] = molecular target: cGMP-specific 3',5'-cyclic phosphodiesterase (Homo sapiens) (UniProt O76074); test: Inhibition of human PDE5 at 10 uM by Eurofins kinase assay relative to control
# [9] = molecular target: Dual 3',5'-cyclic-AMP and -GMP phosphodiesterase 11A (Homo sapiens) (UniProt Q9HCR9); test: Inhibition of human PDE11A at 10 uM by Eurofins kinase assay relative to control
# [10] = molecular target: cGMP-inhibited 3',5'-cyclic phosphodiesterase 3B (Homo sapiens) (UniProt Q13370); test: Inhibition of human PDE3B at 10 uM by Eurofins kinase assay relative to control
# PDE4B1 = PDE4B1 (Homo sapiens, UniProt Q07343); test: Inhibition of recombinant human PDE4B1 extracted from Sf9 cells using [3H]cAMP as substrate at 10 uM by Eurofins kinase assay relative to control; assay type: toxicity, cell-free; conditions: probe [3H]cAMP
# [11] = molecular target: High affinity 3',5'-cyclic-AMP phosphodiesterase 7A (Homo sapiens) (UniProt Q13946); test: Inhibition of human PDE7A1 at 10 uM by Eurofins kinase assay relative to control
# Cryptosporidium parvum = test: Antiparasitic activity against Cryptosporidium parvum Iowa oocyst infected in NOD SCID gamma mouse model assessed as reduction in parasite fecal shedding at 50 mg/kg, po administered twice daily for 7 days starting from day 7 post infection and measured on day 21 by qPCR analysis; assay type: functional, organism-based; conditions: time 14.0 day
# [12] = molecular target: High affinity cAMP-specific and IBMX-insensitive 3',5'-cyclic phosphodiesterase 8A (Homo sapiens) (UniProt O60658); test: Inhibition of human PDE8A1 at 10 uM by Eurofins kinase assay relative to control
# [13] = molecular target: cAMP and cAMP-inhibited cGMP 3',5'-cyclic phosphodiesterase 10A (Homo sapiens) (UniProt Q9Y233); test: Inhibition of human PDE10A2 at 10 uM by Eurofins kinase assay relative to control
# HCT-8 = test: Cytotoxicity against human HCT-8 cells assessed as reduction in cell numbers upto 50 uM incubated for 48 hrs by high-density microscopic celltiter aqueous assay; assay type: toxicity, cell-based; conditions: hct-8, 48 h
# [14] = molecular target: T1, 3',5'-cyclic-AMP phosphodiesterase 4D; test: Inhibition of human PDE4D2 at 10 uM by Eurofins kinase assay relative to control
# PDE5 = PDE5 (Homo sapiens, UniProt O76074); test: Inhibition of human platelet PDE5 using [3H]cGMP as substrate at 10 uM by Eurofins kinase assay relative to control; assay type: toxicity; conditions: human platelet PDE5, probe [3H]cGMP
# [15] = molecular target: 3',5'-cyclic-AMP phosphodiesterase 4B (Homo sapiens) (UniProt Q07343); test: Inhibition of human PDE4B1 at 10 uM by Eurofins kinase assay relative to control
# Cytochrome P450 2C8 = Cytochrome P450 2C8 (Homo sapiens, UniProt P10632); test: Inhibition of recombinant human CYP2C8 by Eurofins assay; assay type: ADME
# Cytochrome P450 2B6 = Cytochrome P450 2B6 (Homo sapiens, UniProt P20813); test: Inhibition of recombinant human CYP2B6 by Eurofins assay; assay type: ADME
# PDE6 = test: Inhibition of bovine retina PDE6 using [3H]cGMP as substrate at 10 uM by Eurofins kinase assay relative to control; assay type: toxicity, Bos taurus; conditions: cattle, bovine retina PDE6, probe [3H]cGMP
# Homo sapiens [16] = organism: Homo sapiens; test: Inhibition of human PDE1B at 10 uM by Eurofins kinase assay relative to control
# [17] = Aqueous solubility of compound at pH 7.4; assay type: physicochemical
# Cytochrome P450 3A4 = Cytochrome P450 3A4 (Homo sapiens, UniProt P08684); test: Inhibition of recombinant human CYP3A4 by Eurofins assay; assay type: ADME
# Cytochrome P450 3A4, sequence (P08684 whole entry): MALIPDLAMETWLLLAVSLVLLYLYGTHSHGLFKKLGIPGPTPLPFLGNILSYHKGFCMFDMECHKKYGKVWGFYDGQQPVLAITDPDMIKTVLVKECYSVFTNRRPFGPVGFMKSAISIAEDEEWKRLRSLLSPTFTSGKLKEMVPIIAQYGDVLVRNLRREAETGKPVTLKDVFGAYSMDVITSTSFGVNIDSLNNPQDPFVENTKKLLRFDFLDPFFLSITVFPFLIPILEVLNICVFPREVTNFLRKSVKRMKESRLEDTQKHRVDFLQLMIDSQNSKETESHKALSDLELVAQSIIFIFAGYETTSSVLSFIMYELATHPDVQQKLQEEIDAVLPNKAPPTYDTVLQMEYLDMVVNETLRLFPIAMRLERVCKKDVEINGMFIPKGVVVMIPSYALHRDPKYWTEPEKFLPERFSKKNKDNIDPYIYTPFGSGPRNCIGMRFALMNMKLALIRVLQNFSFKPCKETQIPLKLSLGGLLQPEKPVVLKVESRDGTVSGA
# T1 sequence (Q08499 whole entry): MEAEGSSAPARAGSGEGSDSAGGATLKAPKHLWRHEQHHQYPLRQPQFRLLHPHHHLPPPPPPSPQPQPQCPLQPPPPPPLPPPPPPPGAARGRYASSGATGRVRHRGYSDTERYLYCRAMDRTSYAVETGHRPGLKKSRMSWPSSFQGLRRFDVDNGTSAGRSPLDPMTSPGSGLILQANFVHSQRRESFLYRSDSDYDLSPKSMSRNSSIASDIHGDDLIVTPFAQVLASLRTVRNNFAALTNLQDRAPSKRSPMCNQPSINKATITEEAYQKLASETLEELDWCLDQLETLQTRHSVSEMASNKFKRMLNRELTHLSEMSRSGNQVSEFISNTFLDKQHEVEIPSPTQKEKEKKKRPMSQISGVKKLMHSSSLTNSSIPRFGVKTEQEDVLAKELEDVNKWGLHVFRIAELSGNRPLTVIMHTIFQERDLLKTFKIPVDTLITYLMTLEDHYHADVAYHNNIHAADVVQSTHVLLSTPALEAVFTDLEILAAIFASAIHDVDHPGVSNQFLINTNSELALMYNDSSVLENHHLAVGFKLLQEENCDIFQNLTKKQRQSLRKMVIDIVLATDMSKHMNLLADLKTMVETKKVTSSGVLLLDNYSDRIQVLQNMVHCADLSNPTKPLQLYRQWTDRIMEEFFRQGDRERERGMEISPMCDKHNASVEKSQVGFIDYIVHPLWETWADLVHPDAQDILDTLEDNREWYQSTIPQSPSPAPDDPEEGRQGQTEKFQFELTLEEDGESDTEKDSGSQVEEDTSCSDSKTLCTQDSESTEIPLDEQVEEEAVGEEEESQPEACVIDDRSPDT
# Cytochrome P450 1A2, sequence (P05177 whole entry): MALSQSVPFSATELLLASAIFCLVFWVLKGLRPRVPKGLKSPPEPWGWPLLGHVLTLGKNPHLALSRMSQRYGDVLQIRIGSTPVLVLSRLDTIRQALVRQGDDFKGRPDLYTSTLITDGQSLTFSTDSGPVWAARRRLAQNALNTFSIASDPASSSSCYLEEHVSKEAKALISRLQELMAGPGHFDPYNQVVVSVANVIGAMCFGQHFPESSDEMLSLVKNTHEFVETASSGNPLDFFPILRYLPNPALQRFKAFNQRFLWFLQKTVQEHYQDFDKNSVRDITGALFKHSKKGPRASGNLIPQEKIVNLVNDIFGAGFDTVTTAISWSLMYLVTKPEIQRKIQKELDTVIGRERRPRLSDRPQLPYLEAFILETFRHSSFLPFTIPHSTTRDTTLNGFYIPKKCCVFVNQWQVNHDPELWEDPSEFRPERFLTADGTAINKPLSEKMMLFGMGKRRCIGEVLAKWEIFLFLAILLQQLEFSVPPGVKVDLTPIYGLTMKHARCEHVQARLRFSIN
# cAMP and cAMP-inhibited cGMP 3',5'-cyclic phosphodiesterase 10A (Homo sapiens), sequence (Q9Y233 whole entry): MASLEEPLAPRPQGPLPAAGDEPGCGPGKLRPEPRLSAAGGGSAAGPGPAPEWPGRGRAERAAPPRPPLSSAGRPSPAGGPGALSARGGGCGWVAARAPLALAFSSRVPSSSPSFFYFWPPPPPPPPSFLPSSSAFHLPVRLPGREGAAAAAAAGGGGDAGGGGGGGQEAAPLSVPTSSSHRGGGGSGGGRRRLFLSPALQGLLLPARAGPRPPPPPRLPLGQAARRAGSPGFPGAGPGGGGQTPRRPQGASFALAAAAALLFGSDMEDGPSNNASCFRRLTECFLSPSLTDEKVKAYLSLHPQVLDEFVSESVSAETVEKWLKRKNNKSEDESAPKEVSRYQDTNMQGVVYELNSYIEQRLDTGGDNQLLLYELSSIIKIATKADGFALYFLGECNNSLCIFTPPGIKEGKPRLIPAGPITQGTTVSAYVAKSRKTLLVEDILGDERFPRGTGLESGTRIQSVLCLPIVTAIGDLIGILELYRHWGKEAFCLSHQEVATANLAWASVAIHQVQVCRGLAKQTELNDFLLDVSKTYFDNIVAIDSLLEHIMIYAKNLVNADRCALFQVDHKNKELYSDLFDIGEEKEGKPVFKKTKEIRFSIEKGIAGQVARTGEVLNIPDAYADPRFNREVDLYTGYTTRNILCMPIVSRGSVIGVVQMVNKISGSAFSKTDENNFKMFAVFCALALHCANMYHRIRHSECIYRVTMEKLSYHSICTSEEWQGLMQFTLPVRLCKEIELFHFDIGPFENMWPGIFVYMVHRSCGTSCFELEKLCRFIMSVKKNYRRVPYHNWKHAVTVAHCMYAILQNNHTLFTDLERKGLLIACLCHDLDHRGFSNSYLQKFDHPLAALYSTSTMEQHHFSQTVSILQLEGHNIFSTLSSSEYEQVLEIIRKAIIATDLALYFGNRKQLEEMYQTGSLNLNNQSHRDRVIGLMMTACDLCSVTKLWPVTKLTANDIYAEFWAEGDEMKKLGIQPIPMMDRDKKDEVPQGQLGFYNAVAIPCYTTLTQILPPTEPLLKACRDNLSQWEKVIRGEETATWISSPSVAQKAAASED
# Cytochrome P450 2D6, sequence (P10635 whole entry): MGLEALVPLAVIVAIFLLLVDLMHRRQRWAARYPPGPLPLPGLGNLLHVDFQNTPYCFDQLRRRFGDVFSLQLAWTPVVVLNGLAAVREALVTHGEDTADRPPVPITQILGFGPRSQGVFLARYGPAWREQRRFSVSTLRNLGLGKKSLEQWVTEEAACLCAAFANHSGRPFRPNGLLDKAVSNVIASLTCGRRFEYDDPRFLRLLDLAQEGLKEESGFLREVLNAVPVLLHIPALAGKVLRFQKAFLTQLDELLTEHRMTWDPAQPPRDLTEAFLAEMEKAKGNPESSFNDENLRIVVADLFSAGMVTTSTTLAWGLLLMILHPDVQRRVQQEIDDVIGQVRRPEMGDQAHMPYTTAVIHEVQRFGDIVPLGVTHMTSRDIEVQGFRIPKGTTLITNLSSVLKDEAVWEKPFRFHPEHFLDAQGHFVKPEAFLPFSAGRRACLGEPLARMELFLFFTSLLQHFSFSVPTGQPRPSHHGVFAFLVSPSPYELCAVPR
# Dual 3',5'-cyclic-AMP and -GMP phosphodiesterase 11A (Homo sapiens), sequence (Q9HCR9 whole entry, looked up): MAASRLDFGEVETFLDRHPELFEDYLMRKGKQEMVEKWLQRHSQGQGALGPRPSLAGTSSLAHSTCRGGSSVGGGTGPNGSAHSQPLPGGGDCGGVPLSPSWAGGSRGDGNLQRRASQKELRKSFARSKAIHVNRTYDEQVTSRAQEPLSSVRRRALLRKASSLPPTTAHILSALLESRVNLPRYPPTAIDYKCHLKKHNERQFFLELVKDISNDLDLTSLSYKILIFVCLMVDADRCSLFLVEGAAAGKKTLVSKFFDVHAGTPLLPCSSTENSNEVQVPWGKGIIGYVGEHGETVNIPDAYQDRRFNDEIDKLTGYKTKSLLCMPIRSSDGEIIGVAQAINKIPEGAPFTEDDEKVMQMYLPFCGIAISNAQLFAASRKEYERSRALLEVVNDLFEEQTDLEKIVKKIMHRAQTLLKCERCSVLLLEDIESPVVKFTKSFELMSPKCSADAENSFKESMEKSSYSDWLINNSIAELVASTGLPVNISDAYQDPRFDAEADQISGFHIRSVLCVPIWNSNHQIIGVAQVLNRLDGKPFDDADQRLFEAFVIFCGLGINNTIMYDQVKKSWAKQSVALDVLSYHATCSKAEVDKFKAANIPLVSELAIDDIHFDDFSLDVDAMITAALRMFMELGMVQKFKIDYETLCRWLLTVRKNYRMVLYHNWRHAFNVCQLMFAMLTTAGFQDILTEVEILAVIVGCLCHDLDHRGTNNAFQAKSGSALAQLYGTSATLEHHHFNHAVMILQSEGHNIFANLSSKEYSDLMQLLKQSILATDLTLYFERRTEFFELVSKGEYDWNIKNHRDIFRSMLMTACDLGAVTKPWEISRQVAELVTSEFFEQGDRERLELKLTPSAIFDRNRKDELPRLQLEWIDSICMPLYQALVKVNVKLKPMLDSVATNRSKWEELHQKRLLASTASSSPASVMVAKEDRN
# PDE11A, sequence (Q9HCR9 whole entry): as the sequence (Q9HCR9 whole entry, looked up) above
# High affinity 3',5'-cyclic-AMP phosphodiesterase 7A (Homo sapiens), sequence (Q13946 whole entry): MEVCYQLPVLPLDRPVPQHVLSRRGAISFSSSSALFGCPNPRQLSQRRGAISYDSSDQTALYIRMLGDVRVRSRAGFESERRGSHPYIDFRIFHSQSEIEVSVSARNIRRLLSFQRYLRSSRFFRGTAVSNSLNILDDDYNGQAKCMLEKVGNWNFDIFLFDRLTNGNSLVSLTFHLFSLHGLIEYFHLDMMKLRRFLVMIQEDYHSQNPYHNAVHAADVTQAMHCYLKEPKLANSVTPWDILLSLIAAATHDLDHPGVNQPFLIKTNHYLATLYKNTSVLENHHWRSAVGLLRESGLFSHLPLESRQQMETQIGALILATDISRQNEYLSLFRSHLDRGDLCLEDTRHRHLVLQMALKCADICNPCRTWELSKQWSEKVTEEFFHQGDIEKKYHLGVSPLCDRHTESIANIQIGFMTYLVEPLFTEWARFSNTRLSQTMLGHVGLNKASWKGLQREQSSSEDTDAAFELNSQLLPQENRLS
structure (smiles),measurement,setting,value
CCc1nn(C)c2nc(-c3ccc(C(=O)O)cc3)nc(NCc3ccc(F)cc3)c12,IC50,Cytochrome P450 1A2,> 10 µM
same,inhibition,Homo sapiens [1],79%
same,IC50,Cytochrome P450 2C19,> 10 µM
same,IC50,[2],8.2 µM
same,IC50,[3],> 10 µM
same,CC50 at 48 h,[4],> 100 µM
same,IC50,Cytochrome P450 2D6,> 10 µM
same,inhibition,[5],36%
same,inhibition at 10 µM,PDE11A,> 50%
same,inhibition,Homo sapiens [6],31%
same,inhibition,[7],27%
same,inhibition,[8],93%
same,inhibition,[9],55%
same,inhibition,[10],2%
same,inhibition at 10 µM,PDE4B1,> 50%
same,inhibition,[11],22%
same,Activity,Cryptosporidium parvum,Active
same,inhibition,[12],30%
same,inhibition,[13],37%
same,Activity,HCT-8,Non-toxic
same,inhibition,[14],42%
same,inhibition at 10 µM,PDE5,> 50%
same,inhibition,[15],54%
same,IC50,Cytochrome P450 2C8,> 10 µM
same,IC50,Cytochrome P450 2B6,> 10 µM
same,inhibition at 10 µM,PDE6,> 50%
same,inhibition,Homo sapiens [16],18%
same,solubility,[17],> 200 µM
same,IC50,Cytochrome P450 3A4,> 10 µM
